# From PMC2865140 (Microbiology (Reading, England), 2009)
# What was measured:
# [1] = biological target: T1, AccD6 (carboxyltransferase beta subunit of ACCase 6) (Mycobacterium tuberculosis, UniProt P9WQH5); assay type: biochemical
# T1 sequence (P9WQH5 1-473): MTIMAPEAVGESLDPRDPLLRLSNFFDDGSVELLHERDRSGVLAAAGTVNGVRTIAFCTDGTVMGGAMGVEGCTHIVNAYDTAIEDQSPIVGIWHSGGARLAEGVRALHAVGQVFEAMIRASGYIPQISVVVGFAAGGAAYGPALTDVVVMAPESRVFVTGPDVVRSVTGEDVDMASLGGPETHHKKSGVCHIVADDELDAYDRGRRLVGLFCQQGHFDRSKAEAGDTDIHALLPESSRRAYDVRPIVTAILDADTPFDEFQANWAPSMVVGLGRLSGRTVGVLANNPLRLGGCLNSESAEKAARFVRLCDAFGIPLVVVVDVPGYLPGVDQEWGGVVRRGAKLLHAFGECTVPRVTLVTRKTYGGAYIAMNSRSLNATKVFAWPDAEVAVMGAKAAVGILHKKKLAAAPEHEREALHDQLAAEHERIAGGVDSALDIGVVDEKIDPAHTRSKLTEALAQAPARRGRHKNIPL
# T1 sequence (P9WPQ3 1-654 partner): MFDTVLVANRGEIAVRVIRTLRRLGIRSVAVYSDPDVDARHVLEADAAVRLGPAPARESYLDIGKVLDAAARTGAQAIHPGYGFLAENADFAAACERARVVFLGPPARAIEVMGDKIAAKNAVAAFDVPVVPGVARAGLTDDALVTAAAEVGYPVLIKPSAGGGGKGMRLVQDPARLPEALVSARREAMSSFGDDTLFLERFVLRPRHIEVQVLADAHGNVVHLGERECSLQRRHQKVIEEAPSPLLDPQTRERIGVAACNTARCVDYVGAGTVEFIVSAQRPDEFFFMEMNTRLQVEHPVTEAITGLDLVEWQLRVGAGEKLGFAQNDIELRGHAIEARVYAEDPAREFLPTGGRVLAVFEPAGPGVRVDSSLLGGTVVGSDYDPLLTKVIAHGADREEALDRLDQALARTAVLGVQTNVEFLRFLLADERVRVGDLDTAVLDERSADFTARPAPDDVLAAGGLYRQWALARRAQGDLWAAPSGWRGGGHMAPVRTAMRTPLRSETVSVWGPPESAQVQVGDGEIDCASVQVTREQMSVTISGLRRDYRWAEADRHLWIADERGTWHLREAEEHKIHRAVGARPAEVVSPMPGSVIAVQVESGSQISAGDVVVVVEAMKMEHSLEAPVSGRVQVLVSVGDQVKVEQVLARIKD
# [2] = biological target: AccD5 (carboxyltransferase beta subunit of ACCase 5) (Mycobacterium tuberculosis, UniProt P9WQH7); assay type: biochemical
# Chain of AccD5 (carboxyltransferase beta subunit of ACCase 5) (P96890 2-600): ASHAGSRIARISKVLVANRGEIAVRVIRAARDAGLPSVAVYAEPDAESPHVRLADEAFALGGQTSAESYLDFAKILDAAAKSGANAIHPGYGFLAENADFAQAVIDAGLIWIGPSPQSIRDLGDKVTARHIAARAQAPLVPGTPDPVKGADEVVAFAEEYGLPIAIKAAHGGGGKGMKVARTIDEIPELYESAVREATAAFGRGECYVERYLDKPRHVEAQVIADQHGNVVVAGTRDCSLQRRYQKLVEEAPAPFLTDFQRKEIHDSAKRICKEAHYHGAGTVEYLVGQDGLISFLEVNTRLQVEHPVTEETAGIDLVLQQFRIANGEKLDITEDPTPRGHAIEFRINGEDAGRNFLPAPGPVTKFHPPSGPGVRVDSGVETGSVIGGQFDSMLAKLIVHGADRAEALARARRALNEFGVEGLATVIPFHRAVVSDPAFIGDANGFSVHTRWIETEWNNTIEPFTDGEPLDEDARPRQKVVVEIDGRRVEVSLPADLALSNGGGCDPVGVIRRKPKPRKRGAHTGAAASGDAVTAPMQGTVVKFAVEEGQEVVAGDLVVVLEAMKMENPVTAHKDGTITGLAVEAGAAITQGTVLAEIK
# Chain of AccD5 (carboxyltransferase beta subunit of ACCase 5) (P96886 whole entry, further chain): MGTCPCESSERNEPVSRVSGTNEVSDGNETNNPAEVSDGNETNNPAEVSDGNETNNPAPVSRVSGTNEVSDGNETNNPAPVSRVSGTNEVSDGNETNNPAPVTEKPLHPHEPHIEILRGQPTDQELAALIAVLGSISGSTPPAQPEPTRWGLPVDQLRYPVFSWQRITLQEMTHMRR
# Chain of AccD5 (carboxyltransferase beta subunit of ACCase 5) (P9WQH7 whole entry): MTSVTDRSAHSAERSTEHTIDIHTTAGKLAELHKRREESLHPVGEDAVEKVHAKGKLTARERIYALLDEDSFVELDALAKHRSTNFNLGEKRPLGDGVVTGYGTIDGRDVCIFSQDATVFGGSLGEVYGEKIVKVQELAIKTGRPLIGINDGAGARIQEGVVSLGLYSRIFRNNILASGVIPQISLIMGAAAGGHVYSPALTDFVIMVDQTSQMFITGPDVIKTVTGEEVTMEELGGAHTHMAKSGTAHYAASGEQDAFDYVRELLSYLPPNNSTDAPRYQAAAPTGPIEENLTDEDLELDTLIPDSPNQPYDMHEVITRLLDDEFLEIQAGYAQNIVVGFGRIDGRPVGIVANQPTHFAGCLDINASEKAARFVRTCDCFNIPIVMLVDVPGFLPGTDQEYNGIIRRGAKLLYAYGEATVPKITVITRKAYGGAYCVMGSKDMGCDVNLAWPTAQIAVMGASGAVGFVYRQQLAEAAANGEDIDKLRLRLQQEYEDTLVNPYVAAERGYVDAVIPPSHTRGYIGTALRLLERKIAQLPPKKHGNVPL
compound,measurement,setting,value
Oc1c(Cl)cc(C(c2cc(Cl)c(O)c(Cl)c2)C(c2cc(Cl)c(O)c(Cl)c2)c2cc(Cl)c(O)c(Cl)c2)cc1Cl [NCI-172033],IC50,[1],~8 µM
same,IC50,[2],78 µM
